# Test results: PubChem BioAssay (NCI)
#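 Step 1: Grow cells in 96-well plates. Step 2: Expose to compound for 48 hours at 5 concentrations. Step 3: Interpolate endpoints linearly; if unreached, use highest concentration. Abbreviation: GI50, concentration required for 50% inhibition of growth. TGI is the concentration that stops growth completely.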
# Columns and labels:
# Assay in all cases: inhibition of tumour cell growth, NCI panel, 48 h
# [1] = system: 786-0 renal
# [2] = system: A498 renal
# [3] = system: A549 NSCLC
# [4] = system: ACHN renal
# [5] = system: BT-549 breast
# [6] = system: CAKI-1 renal
# [7] = system: CCRF-CEM leukemia
# [8] = system: COLO 205 colon
# [9] = system: DU-145 prostate
# [10] = system: HCC-2998 colon
# [11] = system: HCT-116 colon
# [12] = system: HCT-15 colon
# [13] = system: HL-60(TB) leukemia
# [14] = system: HOP-62 NSCLC
# [15] = system: HOP-92 NSCLC
# [16] = system: HS 578T breast
# [17] = system: HT29 colon
# [18] = system: IGROV1 ovarian
# [19] = system: K-562 leukemia
# [20] = system: KM12 colon
# [21] = system: LOX IMVI melanoma
# [22] = system: M14 melanoma
# [23] = system: MALME-3M melanoma
# [24] = system: MCF7 breast
# [25] = system: MDA-MB-231 breast
# [26] = system: MDA-MB-435
# [27] = system: MOLT-4 leukemia
# [28] = system: NCI-H226 lung
# [29] = system: NCI-H23 lung
# [30] = system: NCI-H460 lung
# [31] = system: NCI-H522 lung
# [32] = system: NCI/ADR-RES ovarian
# [33] = system: OVCAR-3 ovarian
# [34] = system: OVCAR-4 ovarian
# [35] = system: OVCAR-5 ovarian
# [36] = system: OVCAR-8 ovarian
# [37] = system: PC-3 prostate
# [38] = system: RPMI-8226 leukemia
# [39] = system: RXF 393 renal
# [40] = system: SF-268 CNS
# [41] = system: SF-295 CNS
# [42] = system: SF-539 CNS
# [43] = system: SK-MEL-2 melanoma
# [44] = system: SK-MEL-28 melanoma
# [45] = system: SK-MEL-5 melanoma
# [46] = system: SK-OV-3 ovarian
# [47] = system: SN12C renal
# [48] = system: SNB-19 CNS
# [49] = system: SNB-75 CNS
# [50] = system: SR leukemia
# [51] = system: SW-620 colon
# [52] = system: T-47D breast
# [53] = system: TK-10 renal
# [54] = system: U251 CNS
# [55] = system: UACC-257 melanoma
# [56] = system: UACC-62 melanoma
# [57] = system: UO-31 renal
# [58] = system: EKVX NSCLC
# [59] = system: MDA-N
structure (smiles),measurement,setting,value
CN(C)c1ccc(/C=C/c2cc[n+](C)c(/C=C/c3ccc(N(C)C)cc3)c2)cc1,GI50,[1],387 nM
same,TGI,[1],1700 nM
same,GI50,[2],194 nM
same,TGI,[2],1810 nM
same,GI50,[3],334 nM
same,TGI,[3],10600 nM
same,GI50,[4],401 nM
same,TGI,[4],2400 nM
same,GI50,[5],349 nM
same,TGI,[5],1610 nM
same,GI50,[6],1420 nM
same,TGI,[6],7400 nM
same,GI50,[7],248 nM
same,TGI,[7],3780 nM
same,GI50,[8],176 nM
same,TGI,[8],356 nM
same,GI50,[9],398 nM
same,TGI,[9],11000 nM
same,GI50,[10],381 nM
same,TGI,[10],1970 nM
same,GI50,[11],278 nM
same,TGI,[11],1240 nM
same,GI50,[12],904 nM
same,TGI,[12],9740 nM
same,GI50,[13],190 nM
same,TGI,[13],873 nM
same,GI50,[14],345 nM
same,TGI,[14],2310 nM
same,GI50,[15],174 nM
same,TGI,[15],655 nM
same,GI50,[16],491 nM
same,TGI,[16],16600 nM
same,GI50,[17],274 nM
same,TGI,[17],2650 nM
same,GI50,[18],821 nM
same,TGI,[18],3430 nM
same,GI50,[19],163 nM
same,TGI,[19],3250 nM
same,GI50,[20],330 nM
same,TGI,[20],1420 nM
same,GI50,[21],356 nM
same,TGI,[21],1450 nM
same,GI50,[22],376 nM
same,TGI,[22],1650 nM
same,GI50,[23],390 nM
same,TGI,[23],2210 nM
same,GI50,[24],272 nM
same,TGI,[24],1130 nM
same,GI50,[25],322 nM
same,TGI,[25],1280 nM
same,GI50,[26],346 nM
same,TGI,[26],1320 nM
same,GI50,[27],388 nM
same,TGI,[27],3530 nM
same,GI50,[28],271 nM
same,TGI,[28],5430 nM
same,GI50,[29],194 nM
same,TGI,[29],1210 nM
same,GI50,[30],343 nM
same,TGI,[30],1720 nM
same,GI50,[31],267 nM
same,TGI,[31],1720 nM
same,GI50,[32],3810 nM
same,TGI,[32],18700 nM
same,GI50,[33],337 nM
same,TGI,[33],1560 nM
same,GI50,[34],225 nM
same,TGI,[34],1010 nM
same,GI50,[35],401 nM
same,TGI,[35],14200 nM
same,GI50,[36],294 nM
same,TGI,[36],1260 nM
same,GI50,[37],248 nM
same,TGI,[37],1260 nM
same,GI50,[38],123 nM
same,TGI,[38],675 nM
same,GI50,[39],389 nM
same,TGI,[39],1910 nM
same,GI50,[40],399 nM
same,TGI,[40],6260 nM
same,GI50,[41],270 nM
same,TGI,[41],1320 nM
same,GI50,[42],393 nM
same,TGI,[42],3010 nM
same,GI50,[43],256 nM
same,TGI,[43],713 nM
same,GI50,[44],667 nM
same,TGI,[44],2700 nM
same,GI50,[45],204 nM
same,TGI,[45],465 nM
same,GI50,[46],270 nM
same,TGI,[46],1390 nM
same,GI50,[47],273 nM
same,TGI,[47],1150 nM
same,GI50,[48],322 nM
same,TGI,[48],2950 nM
same,GI50,[49],253 nM
same,TGI,[49],2330 nM
same,GI50,[50],309 nM
same,TGI,[50],2450 nM
same,GI50,[51],336 nM
same,TGI,[51],5600 nM
same,GI50,[52],152 nM
same,TGI,[52],1300 nM
same,GI50,[53],374 nM
same,TGI,[53],2860 nM
same,GI50,[54],286 nM
same,TGI,[54],1410 nM
same,GI50,[55],275 nM
same,TGI,[55],853 nM
same,GI50,[56],357 nM
same,TGI,[56],1680 nM
same,GI50,[57],1810 nM
same,TGI,[57],11900 nM
CC1(C)CCC[C@]2(C)[C@H]3[C@H](C#N)c4cc(O)c(O)cc4O[C@@]3(C)CC[C@@H]12,TGI,[1],> 10000 nM
same,TGI,[2],> 10000 nM
same,TGI,[4],> 10000 nM
same,TGI,[6],> 10000 nM
same,TGI,[7],> 10000 nM
same,TGI,[8],> 10000 nM
same,TGI,[9],> 10000 nM
same,TGI,[58],> 10000 nM
same,TGI,[10],> 10000 nM
same,TGI,[12],> 10000 nM
same,TGI,[13],> 10000 nM
same,TGI,[14],> 10000 nM
same,TGI,[15],> 10000 nM
same,TGI,[16],> 10000 nM
same,TGI,[18],> 10000 nM
same,TGI,[19],> 10000 nM
same,TGI,[20],> 10000 nM
same,TGI,[21],> 10000 nM
same,TGI,[22],> 10000 nM
same,TGI,[24],> 10000 nM
same,TGI,[25],> 10000 nM
same,TGI,[59],> 10000 nM
same,TGI,[27],> 10000 nM
same,TGI,[28],> 10000 nM
same,TGI,[29],> 10000 nM
same,TGI,[30],> 10000 nM
same,TGI,[31],> 10000 nM
same,TGI,[32],> 10000 nM
same,TGI,[33],> 10000 nM
same,TGI,[34],> 10000 nM
same,TGI,[35],> 10000 nM
same,TGI,[36],> 10000 nM
same,TGI,[37],> 10000 nM
same,TGI,[38],> 10000 nM
same,TGI,[39],> 10000 nM
same,TGI,[40],> 10000 nM
same,TGI,[41],> 10000 nM
same,TGI,[42],> 10000 nM
same,TGI,[43],> 10000 nM
same,TGI,[44],> 10000 nM
same,TGI,[45],> 10000 nM
same,TGI,[46],> 10000 nM
same,TGI,[47],> 10000 nM
same,TGI,[48],> 10000 nM
same,TGI,[50],> 10000 nM
same,TGI,[51],> 10000 nM
same,TGI,[53],> 10000 nM
same,TGI,[54],> 10000 nM
same,TGI,[55],> 10000 nM
same,TGI,[57],> 10000 nM
O=C1c2ccccc2C(=O)N1CC(O)COc1cccc2ccccc12 (centres undefined),TGI,[2],> 100000 nM
same,TGI,[3],> 100000 nM
same,TGI,[4],> 100000 nM
same,TGI,[6],> 100000 nM
same,TGI,[7],> 100000 nM
same,TGI,[8],> 100000 nM
same,TGI,[9],> 100000 nM
same,TGI,[58],> 100000 nM
same,TGI,[10],> 100000 nM
same,TGI,[11],> 100000 nM
same,TGI,[12],> 100000 nM
same,TGI,[13],> 100000 nM
same,TGI,[14],> 100000 nM
same,TGI,[17],> 100000 nM
same,TGI,[18],> 100000 nM
same,TGI,[19],> 100000 nM
same,TGI,[21],> 100000 nM
same,TGI,[22],> 100000 nM
same,TGI,[23],> 100000 nM
same,TGI,[24],> 100000 nM
same,TGI,[25],> 100000 nM
same,TGI,[26],> 100000 nM
same,TGI,[59],> 100000 nM
same,TGI,[27],> 100000 nM
same,TGI,[30],> 100000 nM
same,TGI,[31],> 100000 nM
same,TGI,[32],> 100000 nM
same,TGI,[33],> 100000 nM
same,TGI,[35],> 100000 nM
same,TGI,[36],> 100000 nM
same,TGI,[37],> 100000 nM
same,TGI,[38],> 100000 nM
same,TGI,[40],> 100000 nM
same,TGI,[41],> 100000 nM
same,TGI,[44],> 100000 nM
same,TGI,[45],> 100000 nM
same,TGI,[46],> 100000 nM
same,TGI,[48],> 100000 nM
same,TGI,[50],> 100000 nM
same,TGI,[51],> 100000 nM
same,TGI,[53],> 100000 nM
same,TGI,[54],> 100000 nM
same,TGI,[55],> 100000 nM
same,TGI,[56],> 100000 nM
same,TGI,[57],> 100000 nM
